Test results: ChEMBL document CHEMBL4665769, “Artemyrianolides A-S, Cytotoxic Sesquiterpenoids from Artemisia myriantha” (J Nat Prod, 2020)

Columns and labels:
Type in all cases: functional, cell-based
[1] = system: Huh-7; assay: Cytotoxicity against human Huh-7 cells assessed as reduction in cell viability after 48 hrs by MTT assay; settings: Huh-7, 48 h
[2] = system: HepG2; assay: Cytotoxicity against human HepG2 cells assessed as reduction in cell viability after 48 hrs by MTT assay; settings: HepG2, 48 h
[3] = system: SMMC-7721; assay: Cytotoxicity against human SMMC-7721 cells assessed as reduction in cell viability after 48 hrs by MTT assay; settings: SMMC-7721, 48 h

| SMILES | IC50 [1] [µM] | IC50 [2] [µM] | IC50 [3] [µM] |
| --- | --- | --- | --- |
| C=C1C(=O)O[C@@H]2C[C@H](C)[C@]3(/C=C/C(C)=O)O[C@@H]3C[C@H]12 | 8.2 | > 10 | > 10 |
| C=C1C(=O)O[C@@H]2C[C@]3(C)[C@@H](CCC(C)=O)[C@@H]3C[C@H]12 | 7.8 | > 7.4 | > 10 |
| C=C1C(=O)O[C@@H]2C[C@@]3(C)C=CC(=O)C(C)=C3C[C@H]12 | > 10 | > 10 | > 10 |
| C=C1C[C@@H](OC(C)=O)/C=C(\C)C[C@@H]2OC(=O)C(=C)[C@H]2C[C@H]1O | > 10 | > 10 | > 10 |
| C=C1C(=O)O[C@@H]2CC(=C)[C@@H]3CC[C@@](C)(O)[C@@H]3C[C@H]12 | > 10 | > 10 | > 10 |
| C=C1C[C@H]2OC(=O)C(=C)[C@H]2C[C@@H](O)C(=C)CCC1=O | > 10 | > 10 | > 10 |
| C=C1C[C@@H]2OC(=O)C(=C)[C@H]2C[C@@H]2[C@@H]1[C@H](OC(C)=O)C[C@@]2(C)O | > 10 | > 10 | > 10 |
| C=C1C(=O)O[C@H]2C/C(C)=C/[C@H](OC(C)=O)C[C@@]3(C)O[C@H]3C[C@H]12 | > 10 | > 10 | > 10 |
| C=C1C(=O)O[C@@H]2C[C@]3(C)[C@@H](C[C@H]12)[C@H](C)C(=O)[C@@H]1O[C@@H]13 | > 10 | > 10 | > 10 |
| C=C1C(=O)O[C@@H]2C[C@]3(C)O[C@H](C[C@H]12)C(=C)CC[C@@H]3O | > 10 | > 10 | > 10 |
| C=C1C(=O)O[C@H]2C[C@@]3(C)[C@H](O)CCC(=C)[C@]3(O)C[C@H]12 | > 10 | > 10 | > 10 |
| C=C1C(=O)O[C@H]2C[C@@]3(C)[C@H](O)CCC(=C)[C@]3(OO)C[C@H]12 | > 10 | > 10 | > 10 |
| C=C1C(=O)O[C@H]2C/C(C)=C/[C@H](OC(C)=O)CC(=C)[C@@H](O)C[C@H]12 | > 10 | > 10 | > 10 |
| C=C1C[C@@H](OC(C)=O)/C=C(\C)C[C@@H]2OC(=O)C(=C)[C@H]2C[C@@H]1OO | 10 | > 10 | > 10 |
| C=C1C[C@@H](OC(C)=O)/C=C(\C)C[C@@H]2OC(=O)C(=C)[C@H]2CC1=O | 4.3 | 4.9 | 3.1 |
| C=C1C[C@@H](OC(C)=O)/C=C(\C)C[C@@H]2OC(=O)C(=C)[C@H]2C[C@@H]1OC(C)=O | > 10 | > 10 | > 10 |
| C=C1C(=O)O[C@H]2C/C(C)=C/[C@H](OC(C)=O)C[C@@]3(CO3)C(=O)C[C@H]12 | 8.8 | 8.6 | > 10 |
| CNC(=O)c1cc(Oc2ccc(NC(=O)Nc3ccc(Cl)c(C(F)(F)F)c3)cc2)ccn1 [SORAFENIB] | 10.1 | 8 | > 10 |
| C=C1C(=O)O[C@@H]2C[C@@]3(C)CCCC(=C)[C@]3(O)C[C@H]12 [TELEKIN] | > 10 | > 10 | > 10 |
